Test results reported in ChEMBL document CHEMBL4330157, “Lycopodium Alkaloids: Lycoplatyrine A, an Unusual Lycodine-Piperidine Adduct from Lycopodium platyrhizoma and the Absolute Configurations of Lycoplanine D and Lycogladine H” (J Nat Prod, 2019).

Molecular target: Acetylcholinesterase (Homo sapiens, UniProt P22303)
Test: Inhibition of AChE (unknown origin) using acetylthiocholine as substrate preincubated for 15 mins followed by substrate addition measured every minute for 15 mins by Ellman's method

Acetylcholinesterase, sequence (P22303 whole entry): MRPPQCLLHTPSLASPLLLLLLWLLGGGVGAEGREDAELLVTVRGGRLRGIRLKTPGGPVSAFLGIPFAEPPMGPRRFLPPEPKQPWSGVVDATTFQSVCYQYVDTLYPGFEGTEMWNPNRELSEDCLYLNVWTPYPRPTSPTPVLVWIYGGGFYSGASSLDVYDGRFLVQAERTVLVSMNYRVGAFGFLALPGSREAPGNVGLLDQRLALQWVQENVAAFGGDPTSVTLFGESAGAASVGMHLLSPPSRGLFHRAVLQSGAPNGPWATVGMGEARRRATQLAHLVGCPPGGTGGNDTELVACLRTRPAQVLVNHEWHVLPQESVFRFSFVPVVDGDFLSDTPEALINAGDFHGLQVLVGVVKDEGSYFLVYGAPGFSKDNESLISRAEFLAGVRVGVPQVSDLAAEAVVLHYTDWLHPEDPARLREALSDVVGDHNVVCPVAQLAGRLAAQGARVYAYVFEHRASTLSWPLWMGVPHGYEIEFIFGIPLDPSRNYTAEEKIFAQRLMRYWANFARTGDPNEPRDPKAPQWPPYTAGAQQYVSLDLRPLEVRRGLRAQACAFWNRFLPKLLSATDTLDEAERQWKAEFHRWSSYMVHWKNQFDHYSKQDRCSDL

SMILES: C[C@@H]1C[C@H]2Cc3ncc(C4CCCCN4)cc3[C@]3(C1)NCCC[C@H]23 (stereo partly drawn)
- IC50: > 30 µM

SMILES: C=C[C@@H]1[C@@H]2CC3=C(CCC(=O)N3)[C@@]1(N)C[C@H](C)C2
- IC50: > 30 µM

SMILES: CC1C[C@H]2[C@H](O)[C@@H]3O[C@]4(C1)OC1CCN5CCCC24[C@]13C5 (stereo partly drawn)
- IC50: > 30 µM
